Assay results: patent EP2601945A1 (Thomale, Jürgen, priority 2011, dated 2013)
Where “and” joins values, the source holds several entries; their conditions need not be identical. Equal entries are not always repeated. Entries after “also recorded” stand apart in the source; their conditions may differ.

Legend:
[1] = test system: human cancer cell lines established from tumors (lung, bladder, testis); assay: Co-application of cis-platin and DPH to cancer cell lines: apoptosis by Annexin V staining and FACS analysis; type: cell-based; details: cis-platin alone or in combination with DPH
Kras/p53 deficient mice = assay: Survival upon repetitive cis-platin treatment; type: in vivo; details: repetitive cis-platin 9 mg/kg in combination with DPH 50 mg/kg versus cis-platin alone (Figure 16)
Pt-GG adducts in DNA [2] = assay: In vivo screening for cis-platin uptake inhibitors and DPH co-administration, ICA of Pt-GG adducts; design: species or system mice
Method: (§1) The sacrificed animals were immediately dissected. Kidneys and lungs were submerged in embedding medium (Tissue-Tek O.C.T. Compound) and frozen in liquid nitrogen. Cochleae were dissected and fixed by intralabyrinthine perfusion with Carnoy's solution (3 hours; for DNA adduct staining) or with formaldehyde (4 % in PBS; 1 hour; for OCT protein staining). Cochleae were decalcified in EDTA solution (10 % w/v in PBS) for 3 days and then placed in sucrose solutions (5 % in PBS for 12 hours and 15 % in PBS for 5 hours). After that samples were imbedded in Tissue-Tek medium, frozen and cryosections of 10 µm cut.
(§2) Frozen tissue sections of the inner ear or kidneys on ImmunoSelect slides were fixed in methanol at -20°C for at least 2 hours or overnight and then rehydrated for 10 minutes in PBS, at room temperature. To provide better antibody penetration in the tissue structures the samples underwent alkaline permeabilisation of cytoplasmic and nuclear membranes for 5 minutes at 0°C, followed by washing in PBS at room temperature for 5 minutes. The proteolytic cleavage of cytoplasmic and nuclear proteins was performed in two steps. At first, a pre-warmed pepsin solution (60 µg /ml for cell culture or 100 µg/ml for tissue sections in PBS/HCl) was applied onto the tissue sections and incubated for 10 minutes at 37°C in a humidified chamber. The incubation with pepsin was followed by washing in PBS for 10 minutes at room temperature. In a second step tissue sections were incubated with pre-warmed proteinase K solution (40 µg/ml for cell cultures or 50-100 µg /ml for tissue sections in proteinase K buffer) for 10 minutes at 37°C in a humidified chamber. Subsequently the sections were washed in 0.2 % glycine in PBS for 10 minutes at room temperature. Non-specific binding of the antibodies was inhibited by incubation with a blocking solution of 1 % casein in PBS for 30 minutes at room temperature. The samples were then incubated with a monoclonal antibody (R-C18, Liedert et al., 2006) specific for Pt-GG adducts in DNA (0.1 µg/ml in 0.1 % BSA/PBS) over night at 4°C in the humidified chamber. Subsequently, the slides were washed in 0.05 % Tween 20 in PBS for 5 minutes at room temperature and then in PBS for 5 minutes. The incubation with secondary Cy3-labeled rabbit anti-(rat Ig) antibodies, was performed (0.2 µg/ml in 0.1 % BSA/PBS) for 60 minutes at 37°C in the humidified chamber, followed by washing in 0.05 % Tween 20 in PBS for 5 minutes at room temperature and then in PBS for 5 minutes. The nuclear DNA was counterstained with DAPI (1 µg/ml in PBS) for 30 minutes at room temperature. The slides were then washed in PBS. Finally, the samples were embedded with a densification compound "[…]". The quantification of immuno- and DNA-fluorescence was performed by means of a microscope-coupled digital image analysis system ACAS 6.0 Cytometry Analysis System. Adduct levels in the nuclear DNA of individual cells were calculated by normalizing antibody-derived fluorescence signals to the corresponding DNA content of the same nucleus, and were expressed as arbitrary fluorescence units (AFUs). Data were assigned to specific cell types as determined by histochemistry.
The mice were separated into two groups for pretreatment with low or high doses of the test compounds. […] The low dose group received half the dose of the high dose group (50, 50, 30 or 10 mg/kg, respectively). […] Cochleae and kidneys were dissected for immunostaining and ICA analyses of Pt-GG adduct levels in specific cell types (Figure 8). In tissue sections from mice pretreated with quinine or butylscopolamine no inhibition of DNA platination was observed, independent of the dosing, in either of the three target cell types (renal tubulus epithelium cells (Figure 8 A), cochlear marginal cells (Figure 8B) and outer hair cells (Figure 8 C)). […]

hearing capability = assay: BAER hearing test in XPA-/- and wild type mice after low dose cis-platin; details: cis-platin cumulative dose 3.5 mg/kg within two weeks, NER-deficient XPA-/- mice
Pt-GG adducts in DNA [3] = assay: ICA of Pt-GG adducts in cochlear cells of XPA-/- versus wild type mice; type: in vivo
Method: Frozen tissue sections of the inner ear or kidneys on ImmunoSelect slides were fixed in methanol at -20°C for at least 2 hours or overnight and then rehydrated for 10 minutes in PBS, at room temperature. To provide better antibody penetration in the tissue structures the samples underwent alkaline permeabilisation of cytoplasmic and nuclear membranes for 5 minutes at 0°C, followed by washing in PBS at room temperature for 5 minutes. The proteolytic cleavage of cytoplasmic and nuclear proteins was performed in two steps. At first, a pre-warmed pepsin solution (60 µg /ml for cell culture or 100 µg/ml for tissue sections in PBS/HCl) was applied onto the tissue sections and incubated for 10 minutes at 37°C in a humidified chamber. The incubation with pepsin was followed by washing in PBS for 10 minutes at room temperature. […] The quantification of immuno- and DNA-fluorescence was performed by means of a microscope-coupled digital image analysis system ACAS 6.0 Cytometry Analysis System. Adduct levels in the nuclear DNA of individual cells were calculated by normalizing antibody-derived fluorescence signals to the corresponding DNA content of the same nucleus, and were expressed as arbitrary fluorescence units (AFUs). Data were assigned to specific cell types as determined by histochemistry. […]

Pt-GG adducts in DNA [4] = assay: Immunocytological assay (ICA) of Pt-GG adducts in kidney and cochlea cells after cis-platin treatment; type: in vivo, mice
Method: as §1, §2
24 hours later, the inner ears and kidneys were dissected, kidneys were frozen immediately and cochleae were fixed and decalcified. Cryosections (10 µm) prepared from the tissues were placed onto specific adhesion slides. Slides were then immunostained for the visualization of platinum-guanine-guanine (Pt-GG) intrastrand adducts in the nuclei of individual cells by using the adduct-specific monoclonal antibody R-C18 in an immunocytological assay (ICA) (Liedert et al., 2006). The tissue sections were then stained with a secondary Cy3-labeled goat-anti-rat antibody (Cy3), counterstained with DAPI for nuclear DNA, and analyzed in the fluorescence microscope (Figure 1). Serial sections from the same tissues were stained for morphological orientation with hematoxyline and eosin (H&E). […]

Pt-GG adducts in DNA [5] = assay: as above; type: in vivo, mice; details: cis-platin 12.5 mg/kg single dose; measured 2, 16, 48, 72 h
[6] = DPH 0 to 57 mg/kg i.p. 30 minutes prior to cis-platin 10 mg/kg (Figure 9)
[7] = DPH 57 mg/kg 30 minutes before cis-platin 12.5 mg/kg, 2, 16, 48, 72 hours
[8] = high dose of 60 mg/kg i.p. 1 h before cis-platin 10 mg/kg, 24 h
[9] = cis-platin 10 mg/kg i.p., cochlea, 24 h (Figure 3 B)
[10] = cis-platin 10 mg/kg i.p., kidney
[11] = cis-platin 10 mg/kg i.p., kidney, 24 h (Figure 3 A)

CN(C)CCOC(c1ccccc1)c1ccccc1 [DPH, diphenhydramine]
effect on the induction of apoptosis [1]: no inhibitory effect
survival (Kras/p53 deficient mice): improved survival rates
adduct accumulation in proximal tubule cells and marginal cells (Pt-GG adducts in DNA [2]; [6]): dose-dependent inhibition
adduct levels in distal tubule cells and basal and intermediate cells of the stria vascularis (Pt-GG adducts in DNA [2]; [6]): No significant alterations
DNA platination in marginal and outer hair cells versus cis-platin alone, all time points (Pt-GG adducts in DNA [2]; [7]): drastically decreased
capability to repair the DNA damage (Pt-GG adducts in DNA [2]; [7]): no obvious differences
inhibition of the formation of Pt-adducts in outer hair cells and marginal cells (Pt-GG adducts in DNA [2]; DPH along with cis-platin (description)): about 70%
formation of Pt-adducts in dorsal root ganglion (DRG) neurons (Pt-GG adducts in DNA [2]; cis-platin 15 mg/kg with DPH 50 mg/kg, 24 h (Figure 9 C)): inhibited; also recorded: significantly reduced
shielding from DNA damage, cochlear marginal cells (Pt-GG adducts in DNA [2]; [8]): 70%
shielding from DNA damage, outer hair cells (Pt-GG adducts in DNA [2]; [8]): about 50%
shielding from DNA damage, proximal tubule cells (Pt-GG adducts in DNA [2]; [8]): 75%
adduct levels in other cell types of the inner ear (Pt-GG adducts in DNA [2]; repetitive cis-platin 5 mg/kg every second day plus DPH 57 mg/kg): remained unchanged
adducts in target cells of kidney and inner ear versus cis-platin alone group (Pt-GG adducts in DNA [2]; repetitive cis-platin 5 mg/kg every second day plus DPH 57 mg/kg (Figure 12)): by far less adducts

N.N.[Cl][Pt][Cl] [cis-platin, cis-diaminedichloro-platinum(II)]
reduction of hearing capability (BAER), XPA-/- mice (hearing capability): 45% and ~50%
adduct levels in inner ear cis-platin target cells, XPA -/- mice versus wild type littermates (Pt-GG adducts in DNA [3]; cis-platin cumulated dose 3.5 mg/kg (Figure 7 B legend)): more than 3 times
levels of DNA damage in marginal cells, XPA-/- mice compared to wild type littermates (Pt-GG adducts in DNA [3]; cis-platin cumulative dose 3.5 mg/kg (Figure 7 B)): about 2.7 fold
levels of Pt-GG adducts, OHC vs. adjacent cells in the organ of Corti (Pt-GG adducts in DNA [4]; cis-platin 10 mg/kg i.p.): 11 fold
levels of Pt-GG adducts, marginal cells compared to other cell types in the stria vascularis (Pt-GG adducts in DNA [4]; cis-platin 10 mg/kg i.p.): 5 fold
levels of Pt-GG adducts, adjacent cells in the organ of Corti (Pt-GG adducts in DNA [4]; [9]): 1.19 AFUs
levels of Pt-GG adducts, other cell types in the stria vascularis (Pt-GG adducts in DNA [4]; [9]): 2.08 AFUs
levels of Pt-GG adducts, OHC (outer hair cells) (Pt-GG adducts in DNA [4]; cis-platin 10 mg/kg i.p., cochlea, organ of Corti, 24 h (Figure 3 B)): 13.26 AFUs
levels of Pt-GG adducts, marginal cells (Pt-GG adducts in DNA [4]; cis-platin 10 mg/kg i.p., cochlea, stria vascularis, 24 h (Figure 3 B)): 9,85 AFUs
platination level, distal tubular cells versus glomerulus cells (Pt-GG adducts in DNA [4]; [10]): twice as high
platination level, proximal tubular cells versus distal tubular cells (Pt-GG adducts in DNA [4]; [10]): 7 fold
platination level (Pt-GG adducts), distal tubular cells (Pt-GG adducts in DNA [4]; [11]): 2.61 AFUs
platination level (Pt-GG adducts), glomerulus cells (Pt-GG adducts in DNA [4]; [11]): 0.97 AFUs
platination level (Pt-GG adducts), proximal tubular cells (Pt-GG adducts in DNA [4]; [11]): 18.97 AFUs
adduct levels of non-marginal cells of the stria vascularis, lower than marginal cells (Pt-GG adducts in DNA [4]; cis-platin 10 mg/kg single dose, 24 h, turns of the cochlea (Figure 4)): 10 fold
time at which Pt-GG levels peaked, OHCs (Pt-GG adducts in DNA [5]): 16 h
time at which Pt-GG levels peaked, marginal cells (Pt-GG adducts in DNA [5]): 48 h
